This note sets out measurements from patent US10961231B2, “NTCP inhibitors” (National Institute of Biological Sciences, Beijing, priority 2018, dated 2021).

One experiment concerns the target T1, NTCP (Homo sapiens, UniProt Q14973).
T1 sequence (Q14973 1-349): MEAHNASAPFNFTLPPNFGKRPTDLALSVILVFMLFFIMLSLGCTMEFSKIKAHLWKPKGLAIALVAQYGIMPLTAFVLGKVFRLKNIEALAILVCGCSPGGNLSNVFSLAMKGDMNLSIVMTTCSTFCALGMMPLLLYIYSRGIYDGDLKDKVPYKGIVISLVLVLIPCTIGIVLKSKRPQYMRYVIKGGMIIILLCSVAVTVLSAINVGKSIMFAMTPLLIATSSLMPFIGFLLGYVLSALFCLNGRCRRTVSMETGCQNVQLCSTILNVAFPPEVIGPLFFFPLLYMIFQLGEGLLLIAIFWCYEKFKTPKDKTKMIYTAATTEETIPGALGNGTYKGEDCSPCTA
The experiment in a line: [3H]-TCA uptake assay (NTCP inhibition). In kind it is cell-based. The note with it: IC50, given as a range, marked * (asterisk not explained). A digest of the protocol:
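Read-out is liquid scintillation counting of Triton X-100 lysates after 15 min, 37° C uptake of 1 μM [3H]-taurocholate in Na+ Ringer's buffer (145 mM Na). Beforehand, PTH and HepG2-NTCP cells had 24 h in PMM for NTCP induction and 2 h of compound or DMSO treatment.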
The IC50 is the concentration at which inhibition is half-maximal. In the case of `CCC1NC(=O)C(C2OC(SCc3cc(Cl)ccc3Cl)CC2C)N(C)C(=O)C(C(C)C)N(C)C(=O)C(CC(C)C)N(C)C(=O)C(CC(C)C)N(C)C(=O)C(C)NC(=O)C(C)NC(=O)C(CC(C)C)N(C)C(=O)C(C(C)C)NC(=O)C(CC(C)C)N(C)C(=O)CN(C)C1=O` (centres unmarked) [Compound 98A-s], the half-maximal inhibitory concentration (IC50) is 1 to 100 µM.

The compound `CCC1NC(=O)C(C2OC(SCc3ccc(N4CCOCC4)cc3)CC2C)N(C)C(=O)C(C(C)C)N(C)C(=O)C(CC(C)C)N(C)C(=O)C(CC(C)C)N(C)C(=O)C(C)NC(=O)C(C)NC(=O)C(CC(C)C)N(C)C(=O)C(C(C)C)NC(=O)C(CC(C)C)N(C)C(=O)CN(C)C1=O` (centres unmarked) [Compound 99A-s] displayed an IC50 of 1 to 100 µM. On the same count and under the same terms, under `CCC1NC(=O)C(C2OC(SCc3ccc4c(c3)OCO4)CC2C)N(C)C(=O)C(C(C)C)N(C)C(=O)C(CC(C)C)N(C)C(=O)C(CC(C)C)N(C)C(=O)C(C)NC(=O)C(C)NC(=O)C(CC(C)C)N(C)C(=O)C(C(C)C)NC(=O)C(CC(C)C)N(C)C(=O)CN(C)C1=O` (centres unmarked) [Compound 100A-s] stands 1 to 100 µM; under `CCC1NC(=O)C(C2OC(SCc3cc(F)c(Cl)cc3Cl)CC2C)N(C)C(=O)C(C(C)C)N(C)C(=O)C(CC(C)C)N(C)C(=O)C(CC(C)C)N(C)C(=O)C(C)NC(=O)C(C)NC(=O)C(CC(C)C)N(C)C(=O)C(C(C)C)NC(=O)C(CC(C)C)N(C)C(=O)CN(C)C1=O` (centres unmarked) [Compound 101A-s], 1 to 100 µM; under `CCC1NC(=O)C(C2OC(SC(C)c3ccc(Cl)cc3)CC2C)N(C)C(=O)C(C(C)C)N(C)C(=O)C(CC(C)C)N(C)C(=O)C(CC(C)C)N(C)C(=O)C(C)NC(=O)C(C)NC(=O)C(CC(C)C)N(C)C(=O)C(C(C)C)NC(=O)C(CC(C)C)N(C)C(=O)CN(C)C1=O` (centres unmarked) [Compound 102-s], 1 to 100 µM. Consider `CCC1NC(=O)C(C2OC(OC(C)c3ccc(Cl)cc3)CC2C)N(C)C(=O)C(C(C)C)N(C)C(=O)C(CC(C)C)N(C)C(=O)C(CC(C)C)N(C)C(=O)C(C)NC(=O)C(C)NC(=O)C(CC(C)C)N(C)C(=O)C(C(C)C)NC(=O)C(CC(C)C)N(C)C(=O)CN(C)C1=O` (centres unmarked) [Compound 102], for which the half-maximal inhibitory concentration (IC50) is 1 to 100 µM.

As for `CCC1NC(=O)C(C2OC(SCc3cc(Cl)c(F)cc3Cl)CC2C)N(C)C(=O)C(C(C)C)N(C)C(=O)C(CC(C)C)N(C)C(=O)C(CC(C)C)N(C)C(=O)C(C)NC(=O)C(C)NC(=O)C(CC(C)C)N(C)C(=O)C(C(C)C)NC(=O)C(CC(C)C)N(C)C(=O)CN(C)C1=O` (centres unmarked) [Compound 103-s], the half-maximal inhibitory concentration (IC50) fell in the range of 1 to 100 µM. Compound `CCC1NC(=O)C(C2OC(OCc3cc(Cl)c(F)cc3Cl)CC2C)N(C)C(=O)C(C(C)C)N(C)C(=O)C(CC(C)C)N(C)C(=O)C(CC(C)C)N(C)C(=O)C(C)NC(=O)C(C)NC(=O)C(CC(C)C)N(C)C(=O)C(C(C)C)NC(=O)C(CC(C)C)N(C)C(=O)CN(C)C1=O` (centres unmarked) [Compound 103] returned a 50% inhibitory concentration (IC50) of 1 to 100 µM. Still for that read-out and setting: under `CCC1NC(=O)C(C2OC(SCc3cc(Cl)c(Cl)cc3Cl)CC2C)N(C)C(=O)C(C(C)C)N(C)C(=O)C(CC(C)C)N(C)C(=O)C(CC(C)C)N(C)C(=O)C(C)NC(=O)C(C)NC(=O)C(CC(C)C)N(C)C(=O)C(C(C)C)NC(=O)C(CC(C)C)N(C)C(=O)CN(C)C1=O` (centres unmarked) [Compound 104-s] stands 1 to 100 µM; under `CCC1NC(=O)C(C2OC(OCc3cc(Cl)c(Cl)cc3Cl)CC2C)N(C)C(=O)C(C(C)C)N(C)C(=O)C(CC(C)C)N(C)C(=O)C(CC(C)C)N(C)C(=O)C(C)NC(=O)C(C)NC(=O)C(CC(C)C)N(C)C(=O)C(C(C)C)NC(=O)C(CC(C)C)N(C)C(=O)CN(C)C1=O` (centres unmarked) [Compound 104], 1 to 100 µM; under `CCC1NC(=O)C(C2OC(SCc3cccc(OCC4CCOCC4)c3)CC2C)N(C)C(=O)C(C(C)C)N(C)C(=O)C(CC(C)C)N(C)C(=O)C(CC(C)C)N(C)C(=O)C(C)NC(=O)C(C)NC(=O)C(CC(C)C)N(C)C(=O)C(C(C)C)NC(=O)C(CC(C)C)N(C)C(=O)CN(C)C1=O` (centres unmarked) [Compound 105-s], 1 to 100 µM. Still for that read-out and setting: the value for `CCC1NC(=O)C(C2OC(OCc3cccc(OCC4CCOCC4)c3)CC2C)N(C)C(=O)C(C(C)C)N(C)C(=O)C(CC(C)C)N(C)C(=O)C(CC(C)C)N(C)C(=O)C(C)NC(=O)C(C)NC(=O)C(CC(C)C)N(C)C(=O)C(C(C)C)NC(=O)C(CC(C)C)N(C)C(=O)CN(C)C1=O` (centres unmarked) [Compound 105] was 1 to 100 µM.

The same experiment, now with this note: IC50, given as a range; assay not given.
Take `CCC1NC(=O)C(C2OC(OCc3ccc(N4CCOCC4)cc3)CC2C)N(C)C(=O)C(C(C)C)N(C)C(=O)C(CC(C)C)N(C)C(=O)C(CC(C)C)N(C)C(=O)C(C)NC(=O)C(C)NC(=O)C(CC(C)C)N(C)C(=O)C(C(C)C)NC(=O)C(CC(C)C)N(C)C(=O)CN(C)C1=O` [Compound 99A, [2-((2R,3R)-3-methyl-5-(4-morpholinobenzyloxy)tetrahydrofuran-2-yl)-2-(methylamino)acetic acid]^1-cyclosporin A]: the half-inhibitory concentration (IC50) lay in the range of 1 to 10 µM.

Still in this experiment, the particulars now being: given as a range; assay not given.
The compound `CCC1NC(=O)C(C2OC(OCc3ccc4c(c3)OCO4)CC2C)N(C)C(=O)C(C(C)C)N(C)C(=O)C(CC(C)C)N(C)C(=O)C(CC(C)C)N(C)C(=O)C(C)NC(=O)C(C)NC(=O)C(CC(C)C)N(C)C(=O)C(C(C)C)NC(=O)C(CC(C)C)N(C)C(=O)CN(C)C1=O` [Compound 100A, [2-((2R,3R)-5-(benzo[d][1,3]dioxol-5-ylmethoxy)-3-methyltetrahydrofuran-2-yl)-2-(methylamino)acetic acid]^1-cyclosporin A] came in with a concentration for half-maximal inhibition (IC50) of 0.001 to 1 µM.
